Measured values: patent US11219641B2 («NORMOPHARM» LIMITED LIABILITY COMPANY [RU/RU], priority 2017, dated 2022)
Where two headings read alike, the source gives them in different places.

Legend:
[1] = Wistar rats, literature (Ostrenko et al.); cited from earlier work
[2] = test system: damaged neurocytes of the pyramidal layer of the forebrain cortex; test: Morphometric histological analysis of forebrain cortex neurocytes, prophylaxis series; type: in vivo, Wistar rats; settings: 5 mg/kg, prophylactic application; placebo group 34.8%
Experimental: (§1) Creating a model of alcohol dependence.
(§2) Preparation dosage and application. […] Each group contained 21 animals.
Histological analysis of the nervous tissue. The brain after craniotomy was wholly removed and fixed in a 10% solution of neutral formalin, in 24 hours a zone of precentral gyrus of the forebrain was exposed by frontal incisions. Preparation of nerve tissue specimens was performed according to a standard procedure (dehydration in ethyl alcohol, xylene) with subsequent fabrication of paraffin blocks. Histological sections of 6 μm thick made on a sliding Microm microtome were stained with hematoxylene and eosin. Section duplicates were Nissl-stained with a reagent kit (Biovitrum Co.) and impregnated with silver. Histological sections were morphometrically examined using BioVision image analyzer (Austria) for counting damaged neurocytes of the pyramidal layer of the forebrain cortex in 10 various fields of vision with subsequent statistical processing of the results. Microphotographs were obtained with the help of the research Micros microscope and DCM 900 digital ocular camera.

[3] = test system: model of chronic alcohol intoxication; test: Neurological testing (OFT, EPMT), prophylaxis series; type: in vivo, Wistar rats
Experimental: as §1, §2
(§3) Neurological testing. A general assessment of somatic and neurological status of animals was performed in all examined groups.
(§4) In the open field test (OFT), vertical activity, horizontal activity, frequency of dipping into the holes (a hole exploratory test or “burrow reflex”), grooming frequency, and frequency of central zone entries were registered. In OFT, an animal was placed in one and the same square located near the wall. An exposure time for each animal in the model was 5 min. A round OF represented an arena 1 m in diameter and a wall of 0.4 m height with the floor divided into sectors. Three zones were marked in the open field: central, intermediate (6 sectors), peripheral (12 sectors). Two 60 W lamps were located at a height of 1.5 m from the chamber floor over the central field segments. Horizontal activity in the central and peripheral zone, vertical activity, grooming frequency, frequency of defecation, burrow reflexes were fixed during the test. The walls and floor were treated with a wet and dry cloth after each animal.
The time spent in the open and closed arms and in the maze center, duration of grooming in the closed arm, a number of grooming episodes in the closed arm were registered during the elevated plus maze test (EPMT). […]

[4] = test system: model of chronic alcohol intoxication; settings: after 7 days, treatment series
Experimental: (§5) Materials and Methods. White Wistar male rats weighing 200-250 g (n=168) were used as a model object. The investigation was approved by ethical committee of Federal State Budgetary Educational Institution of Higher Professional Education “Ivanovo State Medical Academy”, the Ministry of Health of the Russian Federation” on Mar. 15, 2016; all procedures and experiments on rats were conducted in compliance with the international rules of treating animals used for scientific purposes. Animals were housed in equal rooms in cages of 7 rats in each at 19-21° C. Animals were given 40-50 g of a mixed fodder per animal every day.
as §1, §2, §3
The time spent in the open and closed arms and in the maze center, duration of grooming in the closed arm, a number of grooming episodes in the closed arm were registered during the elevated plus maze test (EPMT). The tested object was placed in the center of EPM with its nose towards the open arm. The time of testing the animals in the EPM amounted to 5 min. The apparatus used in the test consisted of two arms with an open area at the site of their crossing. One of the maze arms had closed compartments. The maze was installed at a height of 1 m from the floor. The time spent in the open and closed arm, grooming frequency, and rearing frequency were registered.

[5] = test system: model of chronic alcohol intoxication; settings: treatment series
Experimental: as §5, §1, §2, §3, §4

[6] = test system: model of chronic alcohol intoxication; test: Observation of abstinence after alcohol withdrawal, treatment series; settings: after alcohol solution withdrawal, 5, 10, 30 mg/kg
Experimental: Creating a model of alcohol dependence. The criterion for selecting rats, along with the absence of obvious abnormalities in the state and behavior, was an initial preference for 6% ethyl alcohol over tap water. To determine this preference, a preliminary experiment was conducted during 3 days in the individual cages with a free access to both liquids. Once a selection has been done, 6% ethyl alcohol was offered as the only source of liquid, a week later the concentration of alcohol was increased to 15%. After 2 weeks, alcohol was replaced by tap water.
Preparation dosage and application. The experiment was carried out in two series «prophylaxis» and «treatment» with four groups in each series: (1) dose 30 mg/kg (experimental group 1), (2) dose 10 mg/kg (experimental group 2), (3) dose 5 mg/kg (experimental group 3), (4) placebo group. In the experiments of “prophylaxis” series, the preparation was introduced concurrently with model creation, while in the experiments of “treatment” series it was done after model creation. Each group contained 21 animals. Said preparation was introduced intragastrically via a probe once a day in volume of 0.5 ml per each animal for 14 days.
“Treatment” represents a more rigid model of alcohol intoxication for evaluation of the preparation efficacy.

[7] = test system: model of chronic alcohol intoxication; settings: prophylaxis series
Text: as §1, §2

[8] = 5 mg/kg intragastrically once a day
[9] = 10 mg/kg intragastrically once a day
[10] = 30 mg/kg intragastrically once a day
[11] = 5 mg/kg intragastrically once a day, after 7 days
[12] = 10 mg/kg intragastrically once a day, after 7 days
[13] = 30 mg/kg intragastrically once a day, after 7 days

## O=C1O[C@H]([C@@H](O)CO)C([O-])=C1O.[Li+] [lithium ascorbate]
[1]
  toxicity class: Class 5
[2]
  amount of the damaged cortex cells: 18.5%
[3]; introduced with alcohol for 2 weeks
  dose from which effective prophylaxis of neurological disorders was noted: ≥ 5 mg/kg
[3]; various dosages during 2 weeks
  vertical activity in neurological tests: increased vertical activity
[4]; [8]
  Grooming frequency (EPMT): 9.1 times
  Time spent in the closed arm (EPMT): 270.67 s
  Time spent in the open arm (EPMT): 27.73 s
[4]; [9]
  Grooming frequency (EPMT): 6.3 times
  Time spent in the closed arm (EPMT): 265.19 s
  Time spent in the open arm (EPMT): 34.81 s
  Vertical activity (EPMT): 1.5
[4]; [10]
  Grooming frequency (EPMT): 5.8 times
  Time spent in the closed arm (EPMT): 259.01 s
  Time spent in the open arm (EPMT): 38.26 s
[5]; [11]
  Frequency of dipping into the hole (OFT): 1.1 times
  Grooming frequency (OFT): 8.9 times
  Horizontal locomotor activity central (OFT): 1.0
  Horizontal locomotor activity peripheral (OFT): 19.3
  Number of boluses (OFT): 15.1 pcs
[5]; [12]
  Frequency of dipping into the hole (OFT): 1.9 times
  Horizontal locomotor activity central (OFT): 1.8
  Number of boluses (OFT): 12.6 pcs
  Vertical locomotor activity (OFT): 1.4
[5]; [13]
  Frequency of dipping into the hole (OFT): 2.0 times
  Horizontal locomotor activity central (OFT): 1.9
  Number of boluses (OFT): 12.2 pcs
  Vertical locomotor activity (OFT): 1.6
[5]; doses 5, 10, 30 mg/kg compared
  dose at which adequate efficacy was noted, treatment purposes: 5 mg/kg
[6]
  cramps during abstinence: No cramps were noted
  number of aggressive incidents during abstinence: reduced the number of aggressive incidents
[7]; applied together with alcohol
  catecholamine content in the animal blood: inhibited the increase of catecholamine content
[7]
  MDA levels in blood serum: decreased MDA levels
